According to article PMC10054553, “Development of the First ^18F-Labeled Radiohybrid-Based Minigastrin Derivative with High Target Affinity and Tumor Accumulation by Substitution of the Chelating Moiety” (Pharmaceutics, 2023):
Like-named read-outs stand apart in the source and are kept apart here.

What was measured:
[1] = Biodistribution in AR42J tumor-bearing CB17-SCID mice; format: in vivo; details: mouse; for tissue to tissue ratio at 24 h: both sexes, CB17-SCID, total radioactivity; for tissue to tissue ratio at 24 h / tissue uptake at 24 h: 24 h p.i.; for tissue uptake at 1 h: 1 h p.i.
Method: (§1) All animal experiments were conducted in accordance with general animal welfare regulations in Germany (German animal protection act, in the edition of the announcement, dated 18 May 2006, as amended by Article 280 of 19 June 2020, approval no. ROB-55.2-1-2532.Vet_02-18-109 by the General Administration of Upper Bavaria) and the institutional guidelines for the care and use of animals. CB17-SCID mice of both genders and aged 2–12 months (Charles River Laboratories International Inc., Sulzfeld, Germany) were allowed to acclimate at the in-house animal facility for at least one week before inoculation was performed. Tumor xenografts were established as previously reported. Exclusion criteria for animals from an experiment were either weight loss higher than 20%, a tumor size above 1500 mm^3, an ulceration of the tumor, respiratory distress or a change of behavior. None of these criteria applied to any animal from the experiment. Neither randomization nor blinding was applied in the allocation of the experiments. Health status is SPF according to FELASA recommendation.
(§2) Biodistribution studies (n = 4) and µSPECT/CT as well as µPET/CT imaging (using a MILabs VECTor^4 small-animal SPECT/PET/OI/CT device, MILabs, Utrecht, The Netherlands) at 1 and 24 h p.i. were carried out as previously published. For all ^177Lu-labeled compounds, approximately 2–3 MBq (100 pmol)—and for the ^18F-labeled analog, approximately 7 MBq (100 pmol)—were administered. For all competition studies, 2.90 mg/kg (40 nmol) of [^natLu]Lu-DOTA-MGS5 (10^−3 M in phosphate-buffered saline) were co-administered.

[2] = test system: AR42J tumor-bearing CB17-SCID mice; assay: as above; format: in vivo; details: 24 h p.i.
Method: as §1, §2

[3] = adrenal, 100 pmol, 100 pmol, n = 4, read-out: Adrenal activity
[4] = blood, 100 pmol, 100 pmol, n = 4, read-out: Blood activity
[5] = bone, 100 pmol, 100 pmol, n = 4, read-out: Bone activity
[6] = heart, 100 pmol, 100 pmol, n = 4, read-out: Heart activity
[7] = intestine, 100 pmol, 100 pmol, n = 4, read-out: Intestine activity
[8] = liver, 100 pmol, 100 pmol, n = 4, read-out: Liver activity
[9] = lung, 100 pmol, 100 pmol, n = 4, read-out: Lung activity
[10] = muscle, 100 pmol, 100 pmol, n = 4, read-out: Muscle activity
[11] = 100 pmol co-injected with DOTA-MGS5 (40 nmol), n = 2

## CCCC[C@H](NC(=O)[C@H](Cc1c[nH]c2ccccc12)NC(=O)CNC(=O)[C@H](Cc1ccc(O)cc1)NC(=O)[C@H](C)NC(=O)CC[C@@H](NC(=O)CC[C@@H](NC(=O)CC[C@@H](NC(=O)CC[C@@H](NC(=O)CC[C@@H](NC(=O)CC[C@@H](NC(=O)CC[C@@H](NC(=O)CC[C@@H](NC(=O)[C@@H](CNC(=O)c1ccc([Si](F)(C(C)(C)C)C(C)(C)C)cc1)NC(=O)CN1CCN(CC(=O)O)CCN(CC(=O)O)CCN(CC(=O)O)CC1)C(=O)O)C(=O)O)C(=O)O)C(=O)O)C(=O)O)C(=O)O)C(=O)O)C(=O)O)C(=O)N[C@@H](CC(=O)O)C(=O)N[C@@H](Cc1ccccc1)C(N)=O [[^19F]F-[^177Lu]Lu-DOTA-rhCCK-18, metal not drawn]
[1]; tumor / adrenal, 100 pmol, n = 4, read-out: Tumor-to-background ratio, Adrenal
  tissue to tissue ratio at 24 h: 73.3 ± 13.4
[1]; tumor / blood, 100 pmol, n = 4, read-out: Tumor-to-background ratio, Blood
  tissue to tissue ratio at 24 h: 1630 ± 823
[1]; tumor / bone, 100 pmol, n = 4, read-out: Tumor-to-background ratio, Bone
  tissue to tissue ratio at 24 h: 151 ± 48
[1]; tumor / heart, 100 pmol, n = 4, read-out: Tumor-to-background ratio, Heart
  tissue to tissue ratio at 24 h: 312 ± 58
[1]; tumor / intestine, 100 pmol, n = 4, read-out: Tumor-to-background ratio, Intestine
  tissue to tissue ratio at 24 h: 124 ± 30
[1]; tumor / kidney, 100 pmol, n = 4, read-out: Tumor-to-background ratio, Kidney
  tissue to tissue ratio at 24 h: 0.19 ± 0.01
[1]; tumor / liver, 100 pmol, n = 4, read-out: Tumor-to-background ratio, Liver
  tissue to tissue ratio at 24 h: 48.1 ± 6.7
[1]; tumor / lung, 100 pmol, n = 4, read-out: Tumor-to-background ratio, Lung
  tissue to tissue ratio at 24 h: 236 ± 118
[1]; tumor / muscle, 100 pmol, n = 4, read-out: Tumor-to-background ratio, Muscle
  tissue to tissue ratio at 24 h: 650 ± 542
[1]; tumor / pancreas, 100 pmol, n = 4, read-out: Tumor-to-background ratio, Pancreas
  tissue to tissue ratio at 24 h: 78.8 ± 17.5
[1]; tumor / spleen, 100 pmol, n = 4, read-out: Tumor-to-background ratio, Spleen
  tissue to tissue ratio at 24 h: 115 ± 15
[1]; tumor / stomach, 100 pmol, n = 4, read-out: Tumor-to-background ratio, Stomach
  tissue to tissue ratio at 24 h: 6.58 ± 2.77
[1]; [3]
  tissue uptake at 1 h: 0.52 ± 0.07 %ID/g
  tissue uptake at 24 h: 0.37 ± 0.12 %ID/g
[1]; adrenal, 100 pmol co-injected with DOTA-MGS5 (40 nmol), n = 2, read-out: Adrenal activity, competition studies
  tissue uptake at 24 h: 5.02 ± 4.64 %ID/g
[1]; [4]
  tissue uptake at 1 h: 2.56 ± 0.6 %ID/g
  tissue uptake at 24 h: 0.02 ± 0.01 %ID/g
[1]; blood, 100 pmol co-injected with DOTA-MGS5 (40 nmol), n = 2, read-out: Blood activity, competition studies
  tissue uptake at 24 h: 0.02 %ID/g
[1]; blood, heart and lung, 100 pmol, span over the three organs, read-out: Blood, heart and lung levels
  tissue uptake at 1 h: 0.9 to 2.6 %ID/g
[1]; blood, heart and lung, 100 pmol, the three organs, read-out: Blood, heart and lung levels
  tissue uptake at 24 h: < 0.2 %ID/g
[1]; [5]
  tissue uptake at 1 h: 0.48 ± 0.02 %ID/g
  tissue uptake at 24 h: 0.18 ± 0.03 %ID/g
[1]; [6]
  tissue uptake at 1 h: 0.94 ± 0.02 %ID/g
  tissue uptake at 24 h: 0.08 ± 0.02 %ID/g
[1]; heart, 100 pmol co-injected with DOTA-MGS5 (40 nmol), n = 2, read-out: Heart activity, competition studies
  tissue uptake at 24 h: 0.08 ± 0.01 %ID/g
[1]; [7]
  tissue uptake at 1 h: 0.61 ± 0.11 %ID/g
  tissue uptake at 24 h: 0.21 ± 0.02 %ID/g
[1]; intestine, 100 pmol co-injected with DOTA-MGS5 (40 nmol), n = 2, read-out: Intestine activity, competition studies
  tissue uptake at 24 h: 0.17 ± 0.06 %ID/g
[1]; kidney, 100 pmol, 100 pmol, n = 4, read-out: Kidney activity
  tissue uptake at 1 h: 97.2 ± 14 %ID/g
[1]; kidney, 100 pmol co-injected with DOTA-MGS5 (40 nmol), n = 2, read-out: Kidney activity, competition studies
  tissue uptake at 24 h: 193 ± 15 %ID/g
[1]; [8]
  tissue uptake at 1 h: 1.15 ± 0.18 %ID/g
  tissue uptake at 24 h: 0.53 ± 0.07 %ID/g
[1]; liver, 100 pmol co-injected with DOTA-MGS5 (40 nmol), n = 2, read-out: Liver activity, competition studies
  tissue uptake at 24 h: 1.51 ± 0.02 %ID/g
[1]; [9]
  tissue uptake at 1 h: 2.05 ± 0.2 %ID/g
  tissue uptake at 24 h: 0.18 ± 0.15 %ID/g
[1]; lung, 100 pmol co-injected with DOTA-MGS5 (40 nmol), n = 2, read-out: Lung activity, competition studies
  tissue uptake at 24 h: 0.76 ± 0.17 %ID/g
[1]; [10]
  tissue uptake at 1 h: 0.38 ± 0.03 %ID/g
  tissue uptake at 24 h: 0.08 ± 0.06 %ID/g
[1]; muscle, 100 pmol co-injected with DOTA-MGS5 (40 nmol), n = 2, read-out: Muscle activity, competition studies
  tissue uptake at 24 h: 0.07 ± 0.04 %ID/g
[1]; pancreas, 100 pmol, 100 pmol, n = 4, read-out: Pancreas activity
  tissue uptake at 1 h: 1.22 ± 0.21 %ID/g
[1]; spleen, 100 pmol, 100 pmol, n = 4, read-out: Spleen activity
  tissue uptake at 1 h: 0.6 ± 0.08 %ID/g
[1]; spleen, 100 pmol co-injected with DOTA-MGS5 (40 nmol), n = 2, read-out: Spleen activity, competition studies
  tissue uptake at 24 h: 0.95 ± 0.14 %ID/g
[1]; stomach, 100 pmol, 100 pmol, n = 4, read-out: Stomach activity
  tissue uptake at 1 h: 4.25 ± 0.45 %ID/g
[1]; tumor, 100 pmol, 100 pmol, n = 4, AR42J tumor, read-out: Tumor activity
  tissue uptake at 1 h: 24.1 ± 4.2 %ID/g
[1]; tumor, 100 pmol co-injected with DOTA-MGS5 (40 nmol), n = 2, read-out: Tumor activity, competition studies
  tissue uptake at 24 h: 1.75 ± 0.26 %ID/g

## CCCC[C@H](NC(=O)[C@H](Cc1c[nH]c2ccccc12)NC(=O)CNC(=O)[C@H](Cc1ccc(O)cc1)NC(=O)[C@H](C)NC(=O)CC[C@@H](NC(=O)CC[C@@H](NC(=O)CC[C@@H](NC(=O)CC[C@@H](NC(=O)CC[C@@H](NC(=O)CC[C@@H](NC(=O)CC[C@@H](NC(=O)CC[C@@H](NC(=O)[C@@H](CNC(=O)c1ccc([Si](F)(C(C)(C)C)C(C)(C)C)cc1)NC(=O)CN1CCN(CC(=O)O)CCN(CC(=O)O)CCN(CC(=O)O)CC1)C(=O)O)C(=O)O)C(=O)O)C(=O)O)C(=O)O)C(=O)O)C(=O)O)C(=O)O)C(=O)N[C@@H](CC(=O)O)C(=O)N[C@@H](Cc1ccccc1)C(N)=O [[^19F]F-[^177Lu]Lu-DOTA-rhCCK-18] [metal not drawn]
[2]
  fold enhanced kidney values compared to [177Lu]Lu-DOTA-PP-F11N: 40 fold
  fold higher tumor uptake compared to [177Lu]Lu-DOTA-PP-F11N: 13 fold
[2]; [11]
  Pancreas activity, competition studies: 0.22 ± 0.02 %ID/g
  Stomach activity, competition studies: < 2 %ID/g
  Tumor activity, competition studies: < 2 %ID/g
[2]; 100 pmol, n = 4
  Kidney activity: 134 ± 18 %ID/g
  Pancreas activity: 0.34 ± 0.09 %ID/g
  Stomach activity: 4.28 ± 1.05 %ID/g
[2]; 100 pmol, n = 4, AR42J tumor
  Tumor activity: 25.4 ± 4.7 %ID/g
[2]; b47: versus [177Lu]Lu-(R)-DOTAGA-rhCCK-16
  fold higher tumor uptake compared to (R)-DOTAGA derivative: 1.5 fold
